Here are results for 21 compounds from US7060721B1, “Imidazole compounds and medicinal use thereof” (Fujisawa Pharmaceutical Co., Ltd., priority 1998, dated 2006).

As usually defined, the melting point is the temperature of the solid-liquid transition.

`Cc1nc(Cl)c(/C=C/C(=O)NS(=O)(=O)/C=C/c2ccccc2)n1Cc1ccc(-c2ccco2)cc1Cl` [Example 2, (2E)-3-(4-chloro-1-(2-chloro-4-(2-furyl)benzyl)-2-methylimidazol-5-yl)-N-(((E)-2-phenylethenyl)sulfonyl)-2-propenamide]: the melting point lay within 227 to 228 °C.

With `Cc1nc(Cl)c(/C=C/C(=O)NS(=O)(=O)/C=C/c2ccccc2)n1Cc1ccc(-c2cccs2)cc1Cl` [Example 4, (2E)-3-(4-chloro-1-(2-chloro-4-(2-thienyl)benzyl)-2-methylimidazol-5-yl)-N-(((E)-2-phenylethenyl)sulfonyl)-2-propenamide], the melting point was in the range of 246 to 248 °C.

With `Cc1nc(Cl)c(/C=C/C(=O)NS(=O)(=O)/C=C/c2ccccc2)n1Cc1ccc(C#Cc2ccccc2)cc1Cl` [Example 6, (2E)-3-(4-chloro-1-(2-chloro-4-(phenylethynyl)benzyl)-2-methylimidazol-5-yl)-N-(((E)-2-phenylethenyl)sulfonyl)-2-propenamide], the melting point was 220 to 222 °C.

The compound `Cc1nc(Cl)c(/C=C/C(=O)NS(=O)(=O)/C=C/c2ccccc2)n1Cc1ccc(Br)cc1Cl` [Example 8, (E)-3-(1-(4-bromo-2-chlorobenzyl)-4-chloro-2-methylimidazol-5-yl)-N-(((E)-2-phenylethenyl)sulfonyl)-2-propenamide] gave a melting point of 250 to 251 °C.

In turn, `CCCCCS(=O)(=O)NC(=O)/C=C/c1c(Cl)nc(C)n1Cc1ccc(-c2ccccc2)cc1Cl` [Example 9, (E)-3-[4-chloro-1-(2-chloro-4-phenylbenzyl)-2-methylimidazol-5-yl]-N-(1-pentanesulfonyl)-2-propenamide] came in with a melting point of 203 to 204 °C.

`Cc1nc(Cl)c(/C=C/C(=O)NS(=O)(=O)c2ccccc2)n1Cc1ccc(-c2ccccc2)cc1Cl` [Example 10, (E)-N-benzenesulfonyl-3-[4-chloro-1-(2-chloro-4-phenylbenzyl)-2-methylimidazol-5-yl]-2-propenamide] registered a melting point of 245 to 247 °C.

Turning to `Cc1nc(Cl)c(/C=C/C(=O)NS(=O)(=O)/C=C/c2ccccc2)n1Cc1ccc(-c2ccccc2)cc1Cl` [Example 12, (E)-3-(4-chloro-1-(2-chloro-4-phenylbenzyl)-2-methylimidazol-5-yl)-N-(((E)-2-phenylethenyl)sulfonyl)-2-propenamide], the melting point lay in the range of 240 to 241 °C.

In turn, `Cc1nc(Cl)c(/C=C/C(=O)NS(=O)(=O)c2ccc(Cl)s2)n1Cc1ccc(-c2ccccc2)cc1Cl` [Example 13, (E)-3-(4-chloro-1-(2-chloro-4-phenylbenzyl)-2-methylimidazol-5-yl)-N-((5-chloro-2-thienyl)sulfonyl)-2-propenamide] yielded a melting point of 229 to 233 °C.

Compound `Cc1nc(Cl)c(/C=C/C(=O)NS(=O)(=O)c2ccc(Br)s2)n1Cc1ccc(-c2ccccc2)cc1Cl` [Example 14, (E)-N-((5-bromo-2-thienyl)sulfonyl)-3-(4-chloro-1-(2-chloro-4-phenylbenzyl)-2-methylimidazol-5-yl)-2-propenamide] came in with a melting point of 234 to 235 °C.

The compound `CCCOc1ccc(Cn2c(C)nc(Cl)c2/C=C/C(=O)NS(=O)(=O)/C=C/c2ccccc2)c(Cl)c1` [Example 16, (E)-3-(4-chloro-1-(2-chloro-4-(1-propoxy)benzyl)-2-methylimidazol-5-yl)-N-(((E)-2-phenylethenyl)sulfonyl)-2-propenamide] came in with a melting point of 199 to 201 °C.

Consider `CCCCCOc1ccc(Cn2c(C)nc(Cl)c2/C=C/C(=O)NS(=O)(=O)/C=C/c2ccccc2)c(Cl)c1` [Example 18, (E)-3-(4-chloro-1-(2-chloro-4-(1-pentyloxy)benzyl)-2-methylimidazol-5-yl)-N-(((E)-2-phenylethenyl)sulfonyl)-2-propenamide], for which the melting point lay in the range of 196 to 199 °C.

`CCCCCS(=O)(=O)NC(=O)/C=C/c1c(Cl)nc(C)n1Cc1ccc(OCC2CCCC2)cc1Cl` [Example 19, (E)-3-(4-chloro-1-(2-chloro-4-((cyclopentyl)methyloxy)benzyl)-2-methylimidazol-5-yl)-N-(1-pentanesulfonyl)-2-propenamide]: the melting point was 177 to 178 °C.

The compound `Cc1nc(Cl)c(/C=C/C(=O)NS(=O)(=O)/C=C/c2ccccc2)n1Cc1ccc(OCC2CCCC2)cc1Cl` [Example 21, (2E)-3-(4-chloro-1-(2-chloro-4-((cyclopentyl)methyloxy)benzyl)-2-methylimidazol-5-yl)-N-(((E)-2-phenylethenyl)sulfonyl)-2-propenamide] had a melting point of 200 to 201 °C.

Take `Cc1nc(Cl)c(/C=C/C(=O)NS(=O)(=O)/C=C/c2ccccc2)n1Cc1ccc(OCC2CCCCC2)cc1Cl` [Example 23, (2E)-3-(4-chloro-1-(2-chloro-4-((cyclohexyl)methyloxy)benzyl)-2-methylimidazol-5-yl)-N-(((E)-2-phenylethenyl)sulfonyl)-2-propenamide]: the melting point is 210 to 212 °C.

The compound `Cc1nc(Cl)c(/C=C/C(=O)NS(=O)(=O)/C=C/c2ccccc2)n1Cc1ccc(OCc2ccccc2)cc1Cl` [Example 25, (E)-3-(1-(4-benzyloxy-2-chlorobenzyl)-4-chloro-2-methylimidazol-5-yl)-N-(((E)-2-phenylethenyl)sulfonyl)-2-propenamide] registered a melting point of 225 to 227 °C.

For `CSc1ccc(Cn2c(C)nc(Cl)c2/C=C/C(=O)NS(=O)(=O)/C=C/c2ccccc2)c(Cl)c1` [Example 27, (E)-3-(4-chloro-1-(2-chloro-4-(methylthio)benzyl)-2-methylimidazol-5-yl)-N-(((E)-2-phenylethenyl)sulfonyl)-2-propenamide], the melting point fell in the range of 237 to 238 °C.

Compound `Cc1nc(Cl)c(/C=C/C(=O)NS(=O)(=O)/C=C/c2ccccc2)n1Cc1ccc(C(F)(F)F)cc1Cl` [Example 29, (E)-3-(4-chloro-1-(2-chloro-4-(trifluoromethyl)benzyl)-2-methylimidazol-5-yl)-N-(((E)-2-phenylethenyl)sulfonyl)-2-propenamide] showed a melting point of 261 to 263 °C.

As for `Cc1nc(Cl)c(/C=C/C(=O)NS(=O)(=O)/C=C/c2ccccc2)n1Cc1ccc(COc2ccccc2)cc1Cl` [Example 31, (E)-3-(4-chloro-1-(2-chloro-4-(phenoxymethyl)benzyl)-2-methylimidazol-5-yl)-N-(((E)-2-phenylethenyl)sulfonyl)-2-propenamide], the melting point lay within 202 to 203 °C.

In turn, `Cc1nc(Cl)c(/C=C/C(=O)NS(=O)(=O)/C=C/c2ccccc2)n1Cc1ccc([N+](=O)[O-])cc1Cl` [Example 33, (E)-3-(4-chloro-1-(2-chloro-4-nitrobenzyl)-2-methylimidazol-5-yl)-N-(((E)-2-phenylethenyl)sulfonyl)-2-propenamide] came in with a melting point of 199 to 201 °C.

In the case of `Cc1nc(Cl)c(/C=C/C(=O)NS(=O)(=O)/C=C/c2ccccc2)n1Cc1ccc(/C=C/c2ccccc2)cc1Cl` [Example 35, (E)-3-(4-chloro-1-(2-chloro-4-((E)-2-phenylethenyl)benzyl)-2-methylimidazol-5-yl)-N-(((E)-2-phenylethenyl)sulfonyl)-2-propenamide], the melting point was in the range of 230 to 232 °C.

`CCCCCS(=O)(=O)NC(=O)/C=C/c1c(Cl)nc(C)n1Cc1ccc(/C=C/c2ccccc2)cc1Cl` [Example 41, (E)-3-(4-chloro-1-(2-chloro-4-((E)-2-phenylethenyl)benzyl)-2-methylimidazol-5-yl)-N-(1-pentanesulfonyl)-2-propenamide] had a melting point of 215 to 216 °C.
